Assay results published in article PMC6044897 (ACS Omega, 2017).

Columns and labels:
M1R–M5R = settings: read-out: Ki (M1R–M4R); range over M1R–M4R; cited from earlier work
M2R = biological target: T1, M2R (Homo sapiens, UniProt P08172); assay: Equilibrium competition binding with [^3H]64 at CHO-hM2R cell homogenates
T1 sequence (P08172 1-466): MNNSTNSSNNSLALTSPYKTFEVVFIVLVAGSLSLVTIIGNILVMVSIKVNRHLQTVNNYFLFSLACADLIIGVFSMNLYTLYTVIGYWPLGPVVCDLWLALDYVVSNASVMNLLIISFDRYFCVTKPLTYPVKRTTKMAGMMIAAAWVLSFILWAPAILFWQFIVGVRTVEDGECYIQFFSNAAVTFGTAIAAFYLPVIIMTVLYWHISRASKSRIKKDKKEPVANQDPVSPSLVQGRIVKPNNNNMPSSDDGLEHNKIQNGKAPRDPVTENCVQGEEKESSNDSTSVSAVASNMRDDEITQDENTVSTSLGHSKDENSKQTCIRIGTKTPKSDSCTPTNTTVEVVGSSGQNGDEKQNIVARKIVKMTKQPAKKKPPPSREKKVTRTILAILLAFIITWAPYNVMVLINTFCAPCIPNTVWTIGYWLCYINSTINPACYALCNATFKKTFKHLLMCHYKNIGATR

| SMILES | Ki (M1R–M5R) [nM] | displacement of [^3H]64 from the M2R-specific binding sites (M2R) |
| --- | --- | --- |
| CC(C)[N+](C)(CCOC(=O)C1c2ccccc2Oc2ccccc21)C(C)C [Compound 4, propantheline] | 0.057 to 0.33 | – |
| CCCCCCOc1nsnc1C1=CCCN(C)C1 [Compound 1, xanomeline] | – | completely displaced |
